# Reference: article PMC4076210, “Discovery of Novel AKT Inhibitors with Enhanced Anti-Tumor Effects in Combination with the MEK Inhibitor” (PLoS ONE, 2014)
# Like-named read-outs stand apart in the source and are kept apart here.
# Assays:
# Assay in all cases: Kinase panel
# Format in all cases: biochemical
# Axl(h) = biological target: T1, Axl(h) (Homo sapiens, UniProt P30530)
# T1 construct: purchased Millipore KinaseProfiler
# T1 sequence (P30530 26-894): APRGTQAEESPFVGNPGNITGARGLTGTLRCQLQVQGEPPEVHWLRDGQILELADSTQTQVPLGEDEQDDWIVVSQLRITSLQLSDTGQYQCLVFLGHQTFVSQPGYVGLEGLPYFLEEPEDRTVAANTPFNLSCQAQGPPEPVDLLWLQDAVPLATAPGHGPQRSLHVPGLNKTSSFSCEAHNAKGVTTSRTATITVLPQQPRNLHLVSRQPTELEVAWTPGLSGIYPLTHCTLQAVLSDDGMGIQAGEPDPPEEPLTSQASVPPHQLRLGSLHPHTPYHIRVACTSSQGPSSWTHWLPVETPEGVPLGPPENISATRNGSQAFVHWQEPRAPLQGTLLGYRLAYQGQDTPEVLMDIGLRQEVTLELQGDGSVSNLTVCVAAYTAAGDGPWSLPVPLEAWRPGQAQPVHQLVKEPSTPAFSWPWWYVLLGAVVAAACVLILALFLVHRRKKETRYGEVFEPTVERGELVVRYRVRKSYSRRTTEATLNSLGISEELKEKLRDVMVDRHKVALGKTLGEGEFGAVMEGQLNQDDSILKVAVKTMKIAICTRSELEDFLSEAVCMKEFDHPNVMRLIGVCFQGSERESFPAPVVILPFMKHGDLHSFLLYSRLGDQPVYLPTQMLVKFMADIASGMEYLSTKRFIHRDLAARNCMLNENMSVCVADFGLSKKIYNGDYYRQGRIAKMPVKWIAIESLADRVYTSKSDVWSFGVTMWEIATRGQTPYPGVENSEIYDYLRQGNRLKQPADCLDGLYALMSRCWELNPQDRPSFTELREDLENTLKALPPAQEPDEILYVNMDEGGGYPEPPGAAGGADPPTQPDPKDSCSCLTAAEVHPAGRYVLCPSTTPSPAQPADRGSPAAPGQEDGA
# JAK2(h) = biological target: T2, JAK2(h) (Homo sapiens, UniProt O60674)
# T2 construct: purchased Millipore KinaseProfiler
# T2 sequence (O60674 whole entry): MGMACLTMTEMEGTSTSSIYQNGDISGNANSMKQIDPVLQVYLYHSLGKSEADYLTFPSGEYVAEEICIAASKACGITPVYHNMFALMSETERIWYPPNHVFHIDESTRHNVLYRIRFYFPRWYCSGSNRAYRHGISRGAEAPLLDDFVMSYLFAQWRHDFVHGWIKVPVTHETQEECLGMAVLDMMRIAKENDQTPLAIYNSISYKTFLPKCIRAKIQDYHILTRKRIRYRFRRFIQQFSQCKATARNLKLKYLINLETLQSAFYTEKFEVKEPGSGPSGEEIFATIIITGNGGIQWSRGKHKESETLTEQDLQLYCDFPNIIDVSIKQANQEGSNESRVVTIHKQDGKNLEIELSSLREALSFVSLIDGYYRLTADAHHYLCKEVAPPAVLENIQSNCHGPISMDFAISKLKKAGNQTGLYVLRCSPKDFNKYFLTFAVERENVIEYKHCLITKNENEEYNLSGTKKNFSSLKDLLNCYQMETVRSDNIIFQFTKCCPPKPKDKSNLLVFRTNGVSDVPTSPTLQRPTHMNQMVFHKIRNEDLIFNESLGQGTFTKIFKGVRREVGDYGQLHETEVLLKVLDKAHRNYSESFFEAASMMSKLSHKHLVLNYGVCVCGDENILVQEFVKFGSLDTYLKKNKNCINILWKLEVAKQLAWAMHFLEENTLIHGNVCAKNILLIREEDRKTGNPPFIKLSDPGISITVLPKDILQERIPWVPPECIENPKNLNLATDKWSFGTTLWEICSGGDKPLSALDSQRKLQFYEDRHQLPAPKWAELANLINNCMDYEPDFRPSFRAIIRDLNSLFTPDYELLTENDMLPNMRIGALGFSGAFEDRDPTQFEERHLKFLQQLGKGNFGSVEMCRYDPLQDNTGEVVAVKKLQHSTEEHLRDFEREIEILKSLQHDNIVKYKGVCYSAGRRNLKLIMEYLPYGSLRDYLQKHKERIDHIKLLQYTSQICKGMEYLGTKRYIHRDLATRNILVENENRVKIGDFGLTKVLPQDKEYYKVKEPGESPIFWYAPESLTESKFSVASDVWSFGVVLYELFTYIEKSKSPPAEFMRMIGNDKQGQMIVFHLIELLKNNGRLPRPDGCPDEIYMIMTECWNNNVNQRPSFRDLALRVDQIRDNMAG
# NEK6(h) = biological target: T3, NEK6(h) (Homo sapiens, UniProt Q9HC98)
# T3 construct: purchased Millipore KinaseProfiler
# T3 sequence (Q9HC98 whole entry): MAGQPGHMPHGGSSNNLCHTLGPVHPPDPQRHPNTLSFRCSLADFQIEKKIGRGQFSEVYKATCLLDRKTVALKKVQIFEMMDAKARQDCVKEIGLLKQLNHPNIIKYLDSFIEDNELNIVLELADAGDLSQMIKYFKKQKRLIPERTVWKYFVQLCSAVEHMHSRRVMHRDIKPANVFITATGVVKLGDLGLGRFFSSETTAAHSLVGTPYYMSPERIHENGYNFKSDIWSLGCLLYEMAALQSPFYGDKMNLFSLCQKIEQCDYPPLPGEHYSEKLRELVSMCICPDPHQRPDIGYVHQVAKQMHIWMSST
# PDGFRα(h) = biological target: T4, PDGFRα(h) (Homo sapiens, UniProt P16234)
# T4 construct: purchased Millipore KinaseProfiler
# T4 sequence (P16234 24-1089): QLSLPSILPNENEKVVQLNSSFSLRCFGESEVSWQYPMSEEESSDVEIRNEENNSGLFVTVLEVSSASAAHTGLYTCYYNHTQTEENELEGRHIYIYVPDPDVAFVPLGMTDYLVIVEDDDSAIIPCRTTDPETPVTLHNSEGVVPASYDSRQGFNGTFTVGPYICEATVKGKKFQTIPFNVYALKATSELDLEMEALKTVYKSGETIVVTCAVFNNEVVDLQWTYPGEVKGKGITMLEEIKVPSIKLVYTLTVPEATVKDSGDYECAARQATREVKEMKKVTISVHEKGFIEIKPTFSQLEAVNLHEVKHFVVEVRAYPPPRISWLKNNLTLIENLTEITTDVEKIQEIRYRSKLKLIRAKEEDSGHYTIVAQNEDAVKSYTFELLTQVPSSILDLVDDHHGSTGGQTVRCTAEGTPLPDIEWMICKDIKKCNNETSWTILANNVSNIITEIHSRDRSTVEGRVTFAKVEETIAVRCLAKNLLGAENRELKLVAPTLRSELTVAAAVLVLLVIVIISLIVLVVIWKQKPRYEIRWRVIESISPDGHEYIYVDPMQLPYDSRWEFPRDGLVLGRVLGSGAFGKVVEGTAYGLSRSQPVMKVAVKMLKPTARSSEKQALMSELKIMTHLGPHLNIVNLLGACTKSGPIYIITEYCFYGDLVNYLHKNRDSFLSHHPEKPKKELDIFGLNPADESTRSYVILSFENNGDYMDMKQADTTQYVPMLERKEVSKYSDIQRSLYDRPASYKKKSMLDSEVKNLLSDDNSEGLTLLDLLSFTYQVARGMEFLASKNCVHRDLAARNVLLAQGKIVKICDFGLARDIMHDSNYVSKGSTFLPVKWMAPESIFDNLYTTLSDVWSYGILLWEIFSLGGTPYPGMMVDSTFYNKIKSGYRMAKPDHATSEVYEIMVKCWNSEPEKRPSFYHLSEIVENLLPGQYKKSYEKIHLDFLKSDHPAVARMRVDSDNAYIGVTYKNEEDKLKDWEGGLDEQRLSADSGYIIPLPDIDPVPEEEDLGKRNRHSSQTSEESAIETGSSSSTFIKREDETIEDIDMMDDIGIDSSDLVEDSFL
# TAO2(h) = biological target: T5, TAO2(h) (Homo sapiens, UniProt Q9UL54)
# T5 construct: purchased Millipore KinaseProfiler
# T5 sequence (Q9UL54 1-1235): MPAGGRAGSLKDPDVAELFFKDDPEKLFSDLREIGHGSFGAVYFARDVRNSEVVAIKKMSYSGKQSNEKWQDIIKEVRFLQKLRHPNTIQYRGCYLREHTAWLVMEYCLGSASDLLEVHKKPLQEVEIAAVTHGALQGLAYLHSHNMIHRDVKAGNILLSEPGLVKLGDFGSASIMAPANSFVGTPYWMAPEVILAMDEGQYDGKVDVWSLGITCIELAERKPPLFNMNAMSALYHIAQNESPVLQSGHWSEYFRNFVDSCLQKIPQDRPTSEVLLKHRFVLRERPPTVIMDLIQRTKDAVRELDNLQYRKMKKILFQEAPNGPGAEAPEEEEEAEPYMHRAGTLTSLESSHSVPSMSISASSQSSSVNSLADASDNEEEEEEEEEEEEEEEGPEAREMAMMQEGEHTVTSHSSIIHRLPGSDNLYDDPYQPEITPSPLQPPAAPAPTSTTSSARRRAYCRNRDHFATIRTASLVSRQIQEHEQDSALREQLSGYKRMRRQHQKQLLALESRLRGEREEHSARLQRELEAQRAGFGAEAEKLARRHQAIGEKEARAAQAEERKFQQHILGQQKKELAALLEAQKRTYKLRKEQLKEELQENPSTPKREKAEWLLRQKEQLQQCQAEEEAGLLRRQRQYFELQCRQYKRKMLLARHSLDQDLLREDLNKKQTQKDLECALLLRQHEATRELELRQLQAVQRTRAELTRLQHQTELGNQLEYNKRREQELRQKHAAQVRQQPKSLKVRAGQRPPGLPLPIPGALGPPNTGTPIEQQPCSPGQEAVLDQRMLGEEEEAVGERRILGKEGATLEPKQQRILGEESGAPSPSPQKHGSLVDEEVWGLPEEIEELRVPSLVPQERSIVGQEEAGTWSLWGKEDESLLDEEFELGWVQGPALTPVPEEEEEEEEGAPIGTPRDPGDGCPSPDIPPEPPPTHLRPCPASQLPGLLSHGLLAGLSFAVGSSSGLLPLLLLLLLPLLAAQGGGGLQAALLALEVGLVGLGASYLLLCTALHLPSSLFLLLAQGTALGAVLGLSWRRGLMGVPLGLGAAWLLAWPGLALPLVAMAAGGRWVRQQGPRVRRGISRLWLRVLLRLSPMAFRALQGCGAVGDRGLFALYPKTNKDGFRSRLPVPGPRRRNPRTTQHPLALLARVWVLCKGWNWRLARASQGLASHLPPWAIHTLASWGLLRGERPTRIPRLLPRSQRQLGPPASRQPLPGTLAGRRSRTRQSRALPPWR
# Txk(h) = biological target: T6, Txk(h) (Homo sapiens, UniProt P42681)
# T6 construct: purchased Millipore KinaseProfiler
# T6 sequence (P42681 1-527): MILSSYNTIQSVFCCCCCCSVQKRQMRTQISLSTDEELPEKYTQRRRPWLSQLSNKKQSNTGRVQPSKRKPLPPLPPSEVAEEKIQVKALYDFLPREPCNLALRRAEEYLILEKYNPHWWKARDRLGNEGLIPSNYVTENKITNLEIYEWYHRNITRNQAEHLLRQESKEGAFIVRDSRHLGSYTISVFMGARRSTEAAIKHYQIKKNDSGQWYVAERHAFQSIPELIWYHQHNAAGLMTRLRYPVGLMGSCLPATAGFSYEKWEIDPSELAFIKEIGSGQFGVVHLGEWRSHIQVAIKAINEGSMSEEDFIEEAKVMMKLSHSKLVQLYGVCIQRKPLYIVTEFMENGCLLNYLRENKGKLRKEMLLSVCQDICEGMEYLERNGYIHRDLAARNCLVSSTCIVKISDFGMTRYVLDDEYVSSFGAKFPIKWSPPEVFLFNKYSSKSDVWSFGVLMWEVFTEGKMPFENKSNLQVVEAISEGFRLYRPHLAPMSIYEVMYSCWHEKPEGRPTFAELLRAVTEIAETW
# WNK3(h) = biological target: T7, WNK3(h) (Homo sapiens, UniProt Q9BYP7)
# T7 construct: purchased Millipore KinaseProfiler
# T7 sequence (Q9BYP7 whole entry): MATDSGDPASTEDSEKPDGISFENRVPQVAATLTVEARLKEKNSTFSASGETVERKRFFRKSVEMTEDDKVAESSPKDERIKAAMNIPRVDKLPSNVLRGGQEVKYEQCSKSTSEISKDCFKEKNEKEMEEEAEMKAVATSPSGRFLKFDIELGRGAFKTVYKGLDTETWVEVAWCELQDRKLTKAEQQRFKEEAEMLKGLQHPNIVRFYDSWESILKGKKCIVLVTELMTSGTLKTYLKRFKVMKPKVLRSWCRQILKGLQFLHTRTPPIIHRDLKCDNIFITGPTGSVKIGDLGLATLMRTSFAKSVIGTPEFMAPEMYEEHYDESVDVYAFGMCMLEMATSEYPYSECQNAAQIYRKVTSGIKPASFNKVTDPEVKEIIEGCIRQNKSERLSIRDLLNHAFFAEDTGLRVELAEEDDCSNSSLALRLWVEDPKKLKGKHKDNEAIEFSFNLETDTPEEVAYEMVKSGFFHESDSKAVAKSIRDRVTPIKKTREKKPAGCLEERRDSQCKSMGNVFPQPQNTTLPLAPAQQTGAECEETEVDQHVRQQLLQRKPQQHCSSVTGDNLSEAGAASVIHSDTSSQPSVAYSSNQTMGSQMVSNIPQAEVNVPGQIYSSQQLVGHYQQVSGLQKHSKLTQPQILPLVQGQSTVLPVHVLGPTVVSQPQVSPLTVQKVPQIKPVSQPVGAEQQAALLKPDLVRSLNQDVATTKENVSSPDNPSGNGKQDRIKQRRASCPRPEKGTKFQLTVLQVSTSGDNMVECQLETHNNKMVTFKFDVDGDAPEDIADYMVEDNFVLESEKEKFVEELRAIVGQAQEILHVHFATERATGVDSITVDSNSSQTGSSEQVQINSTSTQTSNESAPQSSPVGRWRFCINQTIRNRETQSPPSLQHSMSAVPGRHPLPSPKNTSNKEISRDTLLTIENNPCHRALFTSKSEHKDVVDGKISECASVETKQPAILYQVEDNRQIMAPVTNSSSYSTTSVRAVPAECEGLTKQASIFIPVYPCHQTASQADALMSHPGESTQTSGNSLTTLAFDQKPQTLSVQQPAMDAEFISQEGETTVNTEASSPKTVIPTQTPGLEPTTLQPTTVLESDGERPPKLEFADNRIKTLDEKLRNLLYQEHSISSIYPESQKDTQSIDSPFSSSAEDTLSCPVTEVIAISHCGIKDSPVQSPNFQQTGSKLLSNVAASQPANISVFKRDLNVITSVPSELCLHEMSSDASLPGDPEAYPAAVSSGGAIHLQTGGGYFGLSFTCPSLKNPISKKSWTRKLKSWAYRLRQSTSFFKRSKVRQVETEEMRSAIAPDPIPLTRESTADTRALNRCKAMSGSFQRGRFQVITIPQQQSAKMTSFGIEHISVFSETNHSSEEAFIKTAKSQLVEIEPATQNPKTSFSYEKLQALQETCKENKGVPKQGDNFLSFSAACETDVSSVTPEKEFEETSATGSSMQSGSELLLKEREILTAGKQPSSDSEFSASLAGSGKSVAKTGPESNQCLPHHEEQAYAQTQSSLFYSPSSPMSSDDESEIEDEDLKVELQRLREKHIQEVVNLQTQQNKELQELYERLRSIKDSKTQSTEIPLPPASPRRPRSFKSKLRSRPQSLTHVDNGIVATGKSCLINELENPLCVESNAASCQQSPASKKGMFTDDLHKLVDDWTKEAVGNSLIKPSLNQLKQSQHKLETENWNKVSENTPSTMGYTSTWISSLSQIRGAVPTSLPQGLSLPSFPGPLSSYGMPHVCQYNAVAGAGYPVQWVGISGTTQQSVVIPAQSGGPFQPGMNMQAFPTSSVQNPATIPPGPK
compound,measurement,setting,value
Cn1ncc(Cl)c1-c1cc(C(=O)N[C@H](CN)Cc2cccc(F)c2)sc1Cl [GSK2110183],inhibition at 0.5 µM,Axl(h),6%
same,inhibition at 10 µM,Axl(h),37%
same,inhibition at 0.5 µM,JAK2(h),-31%
same,inhibition at 10 µM,JAK2(h),-55%
same,inhibition at 0.5 µM,NEK6(h),-25%
same,inhibition at 10 µM,NEK6(h),-11%
same,inhibition at 0.5 µM,PDGFRα(h),-2%
same,inhibition at 10 µM,PDGFRα(h),-2%
same,inhibition at 0.5 µM,TAO2(h),-7%
same,inhibition at 10 µM,TAO2(h),12%
same,inhibition at 0.5 µM,Txk(h),-9%
same,inhibition at 10 µM,Txk(h),15%
same,inhibition at 0.5 µM,WNK3(h),0%
same,inhibition at 10 µM,WNK3(h),16%
Cn1ncc(Cl)c1-c1cc(C(=O)N[C@H](CN)Cc2ccc(F)c(F)c2)oc1Cl [GSK2141795],inhibition at 0.5 µM,"Axl(h); 0.5 µM, read-out: % Inhibition",-2%
same,inhibition at 10 µM,"Axl(h); 10 µM, read-out: % Inhibition",-6%
same,inhibition at 0.5 µM,"JAK2(h); 0.5 µM, read-out: % Inhibition",-13%
same,inhibition at 10 µM,"JAK2(h); 10 µM, read-out: % Inhibition",-27%
same,inhibition at 0.5 µM,"NEK6(h); 0.5 µM, read-out: % Inhibition",-17%
same,inhibition at 10 µM,"NEK6(h); 10 µM, read-out: % Inhibition",-22%
same,inhibition at 0.5 µM,"PDGFRα(h); 0.5 µM, read-out: % Inhibition",-4%
same,inhibition at 10 µM,"PDGFRα(h); 10 µM, read-out: % Inhibition",-4%
same,inhibition at 0.5 µM,"TAO2(h); 0.5 µM, read-out: % Inhibition",-5%
same,inhibition at 10 µM,"TAO2(h); 10 µM, read-out: % Inhibition",-2%
same,inhibition at 0.5 µM,"Txk(h); 0.5 µM, read-out: % Inhibition",11%
same,inhibition at 10 µM,"Txk(h); 10 µM, read-out: % Inhibition",30%
same,inhibition at 0.5 µM,"WNK3(h); 0.5 µM, read-out: % Inhibition",-2%
same,inhibition at 10 µM,"WNK3(h); 10 µM, read-out: % Inhibition",1%
